In US11926613B2, “Kinase inhibitors for the treatment of central and peripheral nervous system disorders” (UNIVERSITY OF MIAMI, priority 2017, dated 2024):

Experiments:
[1] = tested on: neurons from hippocampi of E18 rat embryos; assay: Neurite growth length (% NTL) in cultured E18 rat hippocampal neurons, 9-point dose response, 48 hours; assay type: cell-based; conditions: Rattus norvegicus, Neuron, 48 h; for activity at 0.078 µM: 78 nM; for activity at 0.156 µM: 156 nM; for activity at 0.312 µM: 312 nM; for activity at 0.625 µM: 625 nM
How it was run: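 % NTL comes from automated neurite tracing of βIII-tubulin-stained cells, with 200–300 or more neurons per condition. Compounds were given in a 9-point dilution series (20 μM to 0.078125 μM) for 48 h. Cells were trypsin-dissociated E18 rat hippocampal neurons plated at 1500/well on poly-D-lysine.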

[2] = tested on: Primary Neurons; assay: HCS neurite outgrowth assay (High Content Screening with Primary Neurons); assay type: cell-based; conditions: Primary neuron

Row | SMILES | activity at 0.078 µM [1] [%] | activity at 0.156 µM [1] [%] | activity at 0.312 µM [1] [%] | activity at 0.625 µM [1] [%] | activity at 1.25 µM [1] [%] | activity at 2.5 µM [1] [%] | activity at 5 µM [1] [%] | activity at 10 µM [1] [%] | activity at 20 µM [1] [%] | EC50 [2] [µM]
1 | COc1ccc(O)c(C(=O)c2ccc(C(=O)N[C@@H]3CNC[C@H]3NC(=O)c3ccc4c(cnn4C)c3)cc2)c1F [Example A53, N-[(3R,4R)-4-[4-(2-fluoro-6-hydroxy-3-methoxybenzoyl)benzamido]pyrrolidin-3-yl]-1-methyl-1H-indazole-5-carboxamide] | 90 | 82.5 | 79.3 | 76.3 | 85.8 | 88.5 | 90.1 | 91.9 | 70 | 0.814
2 | COc1ccc(O)c(C(=O)c2ccc(C(=O)N[C@@H]3CNC[C@H]3NC(=O)c3ccnc(N)c3)cc2)c1F [Example A54, 2-amino-N-[(3R,4R)-4-[4-(2-fluoro-6-hydroxy-3-methoxybenzoyl)benzamido]pyrrolidin-3-yl]pyridine-4-carboxamide] | 83.1 | 79.9 | 84.3 | 84.1 | 94.7 | 105 | 120 | 151 | 228 | > 20
3 | COc1ccc(O)c(C(=O)c2ccc(C(=O)N[C@@H]3CNC[C@H]3NC(=O)c3ccnc4[nH]ccc34)cc2)c1F [Example A56, N-[(3R,4R)-4-[4-(2-fluoro-6-hydroxy-3-methoxybenzoyl)benzamido]pyrrolidin-3-yl]-1H-pyrrolo[2,3-b]pyridine-4-carboxamide] | 128 | 137 | 131 | 133 | 165 | 196 | 267 | 375 | 488 | 8.54
4 | COc1ccc(O)c(C(=O)c2ccc(C(=O)N[C@@H]3CNC[C@H]3NC(=O)c3ccc4cn[nH]c4c3)cc2)c1F [Example A57, N-[(3R,4R)-4-[4-(2-fluoro-6-hydroxy-3-methoxybenzoyl)benzamido]pyrrolidin-3-yl]-1H-indazole-6-carboxamide] | 92.2 | 97.8 | 95.1 | 93.9 | 97.3 | 93.5 | 105 | 107 | 111 | > 20
5 | COc1ccc(O)c(C(=O)c2ccc(C(=O)N[C@@H]3CNC[C@H]3NC(=O)c3ccc4[nH]nnc4c3)cc2)c1F [Example A58, N-[(3R,4R)-4-[4-(2-fluoro-6-hydroxy-3-methoxybenzoyl)benzamido]pyrrolidin-3-yl]-1H-1,2,3-benzotriazole-5-carboxamide] | 88.3 | 87.6 | 79.3 | 75.7 | 76.3 | 84.8 | 85.3 | 89.5 | 88.6 | 5.27
6 | COc1ccc(O)c(C(O)c2ccc(C(=O)N[C@@H]3CNC[C@H]3NC(=O)c3ccncc3)cc2)c1F (stereo partly drawn) [Example A59, N-[(3R,4R)-4-{4-[(2-fluoro-6-hydroxy-3-methoxyphenyl)(hydroxy)methyl]benzamido}pyrrolidin-3-yl]pyridine-4-carboxamide] | 91.9 | 82.8 | 73.6 | 82.3 | 76.7 | 91.2 | 95.4 | 111 | 106 | 7.13
7 | Cc1cc(C(=O)N[C@@H]2CNC[C@H]2NC(=O)c2ccncc2)ccc1C(=O)c1ccccc1O [Example A64, N-[(3R,4R)-4-[4-(2-hydroxybenzoyl)-3-methylbenzamido]pyrrolidin-3-yl]pyridine-4-carboxamide] | 91.3 | 99.8 | 107 | 105 | 116 | 129 | 124 | 121 | 126 | 0.593
8 | O=C(N[C@@H]1CNC[C@H]1NC(=O)c1ccc(C(=O)c2ccccc2O)cc1Cl)c1ccncc1 [Example A65, N-[(3R,4R)-4-[2-chloro-4-(2-hydroxybenzoyl)benzamido]pyrrolidin-3-yl]pyridine-4-carboxamide] | 108 | 117 | 123 | 113 | 126 | 129 | 128 | 150 | 161 | 7.11
9 | Nc1nccc(C(=O)N[C@@H]2CNC[C@H]2NC(=O)c2ccc(C(=O)c3ccccc3O)c(Cl)c2)n1 [Example A66, 2-amino-N-[(3R,4R)-4-[3-chloro-4-(2-hydroxybenzoyl)benzamido]pyrrolidin-3-yl]pyrimidine-4-carboxamide] | 113 | 107 | 122 | 111 | 122 | 129 | 129 | 145 | 161 | 2.33
10 | O=C(N[C@@H]1CNC[C@H]1NC(=O)c1ccc(C(=O)c2ccccc2O)c(Cl)c1)c1ccncc1 [Example A67, N-[(3R,4R)-4-[3-chloro-4-(2-hydroxybenzoyl)benzamido]pyrrolidin-3-yl]pyridine-4-carboxamide] | 94.2 | 97.9 | 104 | 104 | 112 | 106 | 108 | 120 | 128 | > 20
11 | COc1cc(C(=O)c2ccccc2O)ccc1C(=O)N[C@@H]1CNC[C@H]1NC(=O)c1ccnc(N)n1 [Example A68, 2-amino-N-[(3R,4R)-4-[4-(2-hydroxybenzoyl)-2-methoxybenzamido]pyrrolidin-3-yl]pyrimidine-4-carboxamide] | 101 | 95.7 | 94.8 | 91.2 | 102 | 101 | 96.8 | 102 | 94.3 | 1.24
12 | COc1cc(C(=O)c2ccccc2O)ccc1C(=O)N[C@@H]1CNC[C@H]1NC(=O)c1ccncc1 [Example A69, N-[(3R,4R)-4-[4-(2-hydroxybenzoyl)-2-methoxybenzamido]pyrrolidin-3-yl]pyridine-4-carboxamide] | 94.3 | 96.2 | 96 | 107 | 110 | 112 | 112 | 119 | 117 | 0.401
13 | Nc1nccc(C(=O)N[C@@H]2CNC[C@H]2NC(=O)c2ccc(C(=O)c3cccc(Cl)c3O)cc2)n1 [Example A70, 2-amino-N-[(3R,4R)-4-[4-(3-chloro-2-hydroxybenzoyl)benzamido]pyrrolidin-3-yl]pyrimidine-4-carboxamide] | 103 | 107 | 115 | 122 | 123 | 117 | 122 | 135 | 145 | > 20
14 | O=C(N[C@@H]1CNC[C@H]1NC(=O)c1ccc(C(=O)c2cccc(Cl)c2O)cc1)c1ccncc1 [Example A71, N-[(3R,4R)-4-[4-(3-chloro-2-hydroxybenzoyl)benzamido]pyrrolidin-3-yl]pyridine-4-carboxamide] | 94.8 | 99 | 105 | 109 | 102 | 109 | 119 | 117 | 124 | 2.15
15 | COc1cccc(C(=O)c2ccc(C(=O)N[C@@H]3CNC[C@H]3NC(=O)c3ccnc(N)n3)cc2)c1O [Example A72, 2-amino-N-[(3R,4R)-4-[4-(2-hydroxy-3-methoxybenzoyl)benzamido]pyrrolidin-3-yl]pyrimidine-4-carboxamide] | 96.4 | 94 | 97.7 | 108 | 106 | 105 | 113 | 127 | 157 | > 20
16 | COc1cccc(C(=O)c2ccc(C(=O)N[C@@H]3CNC[C@H]3NC(=O)c3ccncc3)cc2)c1O [Example A73, N-[(3R,4R)-4-[4-(2-hydroxy-3-methoxybenzoyl)benzamido]pyrrolidin-3-yl]pyridine-4-carboxamide] | 96.7 | 110 | 102 | 105 | 125 | 117 | 121 | 136 | 159 | > 20
